Data as given in publication PMC8881501, “Identification of SARS-CoV-2 inhibitors targeting Mpro and PLpro using in-cell-protease assay” (Communications Biology, 2022).
Values joined by “and” are separate entries in the source; they are usually repeats but may differ in a detail not shown here. Equal entries are not always repeated. Non-standard residues stand in square brackets, D forms with d. Residues, ends and D or L forms follow the SMILES beside them. Nle = CCCC[C@H](N)C(=O)O

Key:
SARS-CoV-2 Mpro [1] = molecular target: T1, SARS-CoV-2 Mpro (Severe acute respiratory syndrome coronavirus 2, UniProt P0DTC1); assay: In-cell protease (ICP) assay, Mpro construct in HEK293T cells; assay type: cell-based; conditions: HEK-293T
SARS-CoV-2 PLpro = SARS-CoV-2 PLpro (Severe acute respiratory syndrome coronavirus 2, UniProt P0DTC1); assay: cell-based; conditions: HEK-293T
SARS-CoV-2 [2] = assay: microbe, parasite or virus in culture; assay type: cell-based
SARS-CoV-2 [3] = assay type: cell-based; conditions: Huh-7.5, MOI 0.1, 24 h.p.i., anti-N IFA
SARS-CoV-2 [4] = assay: Time of addition (pre-treatment) experiment in Huh-7.5 cells, plaque assay; assay type: cell-based; conditions: Huh-7.5, pretreatment
SARS-CoV-2 Mpro [5] = molecular target: T1, SARS-CoV-2 Mpro; assay: biochemical; conditions: Mpro 200 nM, substrate 10 μM, 1 h pre-incubation; read-out: IC50
Protocol: A cleavage site is indicated by an asterisk. […] N = 3, values are represented as mean ± SE.
For the determination of half-maximal inhibitory concentrations (IC50) of MG-101 and GC376 (BPS Bioscience), a synthetic substrate of Mpro containing FRET pair and Mpro nsp4/5 cleavage site (indicated by an arrow, Dabcyl-KTSAVLQ ↓ SGFRKME-Edans) (BPS Bioscience) was used for the FRET-based cleavage assay. The assay was performed in 96-well, black, flat-bottomed microtiter plates (Greiner Bio-One, Germany) with a final volume of 50 μl. Mpro (a final concentration of 200 nM) was pre-incubated for 1 h at 22 °C with compounds at different concentrations in the assay buffer (20 mM HEPES (pH 7), 0.5 mM EDTA, 1 mM dithiothreitol, 5% glycerol). The substrate was then added at a final concentration of 10 μM to the reaction mixture and the reaction was incubated for 4 h at 22 °C. The readings for the different concentrations of the inhibitor compounds incubated with the substrate without Mpro were measured as a blank. The fluorescence signals (excitation/emission, 360 nm/460 nm) of released EDANS were measured using Infinite 200 PRO multimode plate reader (Tecan, USA). The results were plotted as dose inhibition curves using nonlinear regression with a variable slope to determine the IC50 values of inhibitor compounds using GraphPad Prism 9.0.

Mpro = conditions: thermal shift assay as worded; cited from earlier work
in vitro = conditions: human, CC50, Huh-7.5 cells, alamarBlue reduction
[6] = read-out: mEmerald-NLS nuclear/total fluorescence (protease activity) normalized to untreated cells, 1 μM, HEK293T, Fig 2A replicate data, untreated control = 100
[7] = read-out: mEmerald-NLS nuclear/total fluorescence (protease activity) normalized to untreated cells, 10 μM, HEK293T, Fig 2A replicate data, untreated control = 100

## CCCC[C@@H](C=O)NC(=O)[C@H](CC(C)C)NC(=O)[C@H](CC(C)C)NC(C)=O [MG-101] (Ac-Leu-Leu-[Nle]-aldehyde)
SARS-CoV-2 Mpro [1]; [6]
  remaining activity at 1 µM: 22%
SARS-CoV-2 Mpro [1]; [7]
  remaining activity at 10 µM: 8.9%
SARS-CoV-2 PLpro; [6]
  remaining activity at 1 µM: 68%
SARS-CoV-2 PLpro; [7]
  remaining activity at 10 µM: 70%
SARS-CoV-2 [2]; Severe acute respiratory syndrome coronavirus 2, Huh7.5, 24 h
  EC50: 0.038 µM
SARS-CoV-2 [2]; single drug 1 μM, Huh 7.5, replicates
  virus titer at 24 h.p.i., Fig 6A data: 48000 and 56000 and 44000
SARS-CoV-2 [3]
  inhibition of virus spread compared to untreated controls: 95%
SARS-CoV-2 [4]
  effect of pre-treatment on virus production / entry: affect the virus entry
  reduction in virus titer on pretreatment of cells: 1 log
SARS-CoV-2 Mpro [5]
  IC50: 2.89 ± 0.86 µM
Mpro
  IC50: 8.6 µM
In vitro
  CC50 at 24 h: 37 µM
